The test system of this series is CCRIS mutagenicity, Ames/micronucleus/aberration tests. As to the kind of experiment: CCRIS mutagenicity studies.

The structures appear in SMILES notation. The source made the active and inactive calls. No rule for the calls is given here.

On to `Oc1ccc(O)c(O)c1`, for which the mutagenic call reads like this: (End Point: IN VITRO CHROMOSOMAL ABERRATIONS, Test System: HUMAN PERIPHERAL LYMPHOCYTES, Metabolic Activation: NONE) “active; positive (ploidy changes)”; (End Point: IN VITRO CHROMOSOMAL ABERRATIONS, Test System: HUMAN PERIPHERAL LYMPHOCYTES, Metabolic Activation: NONE, Method: FISH) “active; positive (ploidy); greater effects on certain chromosomes”; (End Point: IN VITRO CHROMOSOMAL ABERRATIONS, Test System: HUMAN PERIPHERAL LYMPHOCYTES, Metabolic Activation: NONE, Method: FISH - DUAL COLOR PROBES) “active; positive (ploidy changes in chromosomes 7 and 8)”; (End Point: IN VITRO CHROMOSOMAL ABERRATIONS, Test System: HUMAN PERIPHERAL LYMPHOCYTES, Metabolic Activation: NONE, Method: FISH- DUAL COLOR PROBES) “inactive; negative for translocations”; (End Point: IN VITRO MICRONUCLEUS, Test System: HUMAN PERIPHERAL LYMPHOCYTES, Metabolic Activation: NONE, Method: FISH - DUAL COLOR PROBES) “active; positive”; (Test System: AMES SALMONELLA TYPHIMURIUM, Strain/Indicator: TA97, Metabolic Activation: RAT, LIVER, S-9, AROCLOR 1254, Method: PREINCUBATION) “inactive; negative”. Further, the mutagenic call runs as follows: (Test System: AMES SALMONELLA TYPHIMURIUM, Strain/Indicator: TA97, Metabolic Activation: RAT, LIVER, S-9, PHENOBARBITAL, Method: PREINCUBATION) “inactive; negative”; (Test System: AMES SALMONELLA TYPHIMURIUM, Strain/Indicator: TA98, Metabolic Activation: RAT, LIVER, S-9, AROCLOR 1254, Method: PREINCUBATION) “inactive; negative”; (Test System: AMES SALMONELLA TYPHIMURIUM, Strain/Indicator: TA98, Metabolic Activation: RAT, LIVER, S-9, PHENOBARBITAL, Method: PREINCUBATION) “inactive; negative”; (Test System: AMES SALMONELLA TYPHIMURIUM, Strain/Indicator: TA100, Metabolic Activation: NONE, Method: FLUCTUATION TEST) “inactive; negative”; (Test System: AMES SALMONELLA TYPHIMURIUM, Strain/Indicator: TA100, Metabolic Activation: NONE, Method: PREINCUBATION) “inactive; negative”; (Test System: AMES SALMONELLA TYPHIMURIUM, Strain/Indicator: TA100, Metabolic Activation: RAT, LIVER, S-9, AROCLOR 1254, Method: PREINCUBATION) “inactive; negative”. Besides, the mutagenic call by setting is: (Test System: AMES SALMONELLA TYPHIMURIUM, Strain/Indicator: TA100, Metabolic Activation: RAT, LIVER, S-9, PCB, Method: FLUCTUATION TEST) “active; positive”; (Test System: AMES SALMONELLA TYPHIMURIUM, Strain/Indicator: TA100, Metabolic Activation: RAT, LIVER, S-9, PHENOBARBITAL, Method: PREINCUBATION) “inactive; negative”; (Test System: AMES SALMONELLA TYPHIMURIUM, Strain/Indicator: TA102, Metabolic Activation: NONE, Method: PREINCUBATION) “inactive; negative”; (Test System: AMES SALMONELLA TYPHIMURIUM, Strain/Indicator: TA102, Metabolic Activation: RAT, LIVER, S-9, AROCLOR 1254, Method: PREINCUBATION) “inactive; negative”; (Test System: AMES SALMONELLA TYPHIMURIUM, Strain/Indicator: TA104, Metabolic Activation: NONE, Method: PREINCUBATION) “inactive; negative”; (Test System: AMES SALMONELLA TYPHIMURIUM, Strain/Indicator: TA1535, Metabolic Activation: NONE, Method: PREINCUBATION) “inactive; negative”. Further, the mutagenic call by setting is: (Test System: AMES SALMONELLA TYPHIMURIUM, Strain/Indicator: TA1535, Metabolic Activation: RAT, LIVER, S-9, AROCLOR 1254, Method: PREINCUBATION) “inactive; negative”; (Test System: CHINESE HAMSTER V-79, Strain/Indicator: V-79/6-THIOGUANINE, Metabolic Activation: NONE) “active; positive”.

Source of the values: PubChem BioAssay AID1259407 (Chemical Carcinogenesis Research Information System (CCRIS), 2018).
